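The compound was tested at five concentrations on cells cultured in 96-well plates, with a 48-hour exposure period. At the GI50, growth is halved. At the TGI there is no net growth.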
Columns and labels:
Experiment in all cases: NCI anticancer screen, dose series, 48 h
OVCAR-4 ovarian = test system: OVCAR-4 ovarian
SN12C renal = test system: SN12C renal
SF-539 CNS = test system: SF-539 CNS
CCRF-CEM leukemia = test system: CCRF-CEM leukemia
MALME-3M melanoma = test system: MALME-3M melanoma
SK-MEL-28 melanoma = test system: SK-MEL-28 melanoma
RXF 393 renal = test system: RXF 393 renal
OVCAR-8 ovarian = test system: OVCAR-8 ovarian
MDA-N = test system: MDA-N

Row | SMILES | TGI (OVCAR-4 ovarian) [µM] | TGI (SN12C renal) [µM] | TGI (SF-539 CNS) [µM] | TGI (CCRF-CEM leukemia) [µM] | TGI (MALME-3M melanoma) [µM] | TGI (SK-MEL-28 melanoma) [µM] | TGI (RXF 393 renal) [µM] | TGI (OVCAR-8 ovarian) [µM] | TGI (MDA-N) [µM] | GI50 (SN12C renal) [µM] | GI50 (SF-539 CNS) [µM] | GI50 (CCRF-CEM leukemia) [µM] | GI50 (MALME-3M melanoma) [µM] | GI50 (SK-MEL-28 melanoma) [µM] | GI50 (RXF 393 renal) [µM] | GI50 (OVCAR-8 ovarian) [µM]
1 | COc1ccc(-c2cc(=O)c3cc(OC)c(OC)cc3[nH]2)cc1OC | > 100 | > 100 | > 100 | > 100 | > 100 | > 100 | > 100 | > 100 | > 100 | – | – | – | – | – | – | –
2 | CCCSC1=N/C(=C\c2ccco2)C(=O)N1 | > 100 | > 100 | > 100 | – | > 100 | > 100 | > 100 | > 100 | > 100 | – | – | – | – | – | – | –
3 | CCOC(=O)C(NC(=O)c1cccc(Cl)c1)(N1CCN(c2cc3c(cc2F)c(=O)c(C(=O)O)cn3CC)CC1)C(F)(F)F (stereo not given) | 53 | 70.9 | 30.2 | 10.7 | 32.4 | 33.9 | 39.4 | 46.7 | 28.2 | – | – | – | – | – | – | –
4 | NS(=O)(=O)c1cc2c(cc1Cl)NC(C(=O)NNC(=O)c1ccncc1)=NS2(=O)=O | > 100 | > 100 | > 100 | > 100 | > 100 | > 100 | > 100 | > 100 | – | – | – | – | – | – | – | –
5 | CCc1n[nH]c(=O)n1-c1ccncc1 | > 100 | > 100 | > 100 | > 100 | > 100 | > 100 | > 100 | > 100 | > 100 | – | – | – | – | – | – | –
6 | Cc1cc(NS(=O)(=O)c2ccc(NC(NC(=O)OC(C)C)(C(F)(F)F)C(F)(F)F)cc2)nc(C)n1 | > 100 | > 100 | > 100 | > 100 | > 100 | > 100 | > 100 | > 100 | > 100 | – | – | – | – | – | – | –
7 | Cc1cc(N(CCCl)CCCl)ccc1/C=N\NC(=O)c1cccnc1 | – | > 100 | > 100 | > 100 | 83.7 | > 100 | 48.6 | > 100 | – | 22.4 | 13.9 | 9.23 | 26.2 | 43.4 | 19.2 | 25.9
8 | COc1ccc(N=C(SSC(=Nc2ccc(OC)cc2)c2ccc([N+](=O)[O-])o2)c2ccc([N+](=O)[O-])o2)cc1 | 2.92 | 4.87 | > 21.9 | > 22.5 | 4.14 | > 19.7 | 2.92 | 7.71 | 12.7 | – | – | – | – | – | – | –
9 | C[C@@H](c1ccccc1)N(CC#N)[C@H]1CCC[C@]1(O)/C=C/c1ccc2c(c1)OCO2 | > 25 | > 25 | – | > 25 | > 25 | > 25 | > 25 | > 25 | > 25 | – | – | – | – | – | – | –
10 | FC(F)(Sc1nc2ccccc2[nH]1)c1nc2ccccc2o1 | > 100 | > 100 | > 100 | > 100 | > 100 | > 100 | > 100 | > 100 | > 100 | – | – | – | – | – | – | –
11 | O=C1C[C@@]23CCC4(CC2=CCC[C@H]3O1)OCCO4 | > 100 | > 100 | > 100 | – | > 100 | > 100 | > 100 | – | > 100 | – | – | – | – | – | – | –
12 | CCCCCCCCCCCCCCCC(=O)OCC(COP(=O)(O)OCCNC(=O)CCSSc1ccccn1)OC(=O)CCCCCCCCCCCCCCC (stereo not given) | > 100 | > 100 | > 100 | > 100 | > 100 | > 100 | > 100 | > 100 | > 100 | – | – | – | – | – | – | –
13 | CCOC(=O)C1(NC(=O)OC(C)(C)C)CCc2[nH]oc(=O)c2C1 (stereo not given) | > 100 | > 100 | > 100 | > 100 | > 100 | > 100 | – | > 100 | > 100 | – | – | – | – | – | – | –
14 | CC(C)S1=C2C(=O)CC(C)(C)CC2=Nc2ccccc21 (stereo not given) | > 100 | > 100 | – | > 100 | > 100 | > 100 | > 100 | > 100 | > 100 | – | – | – | – | – | – | –
15 | CCOC(=O)c1ccc(-c2cccs2)[nH]1 | > 100 | > 100 | > 100 | > 100 | > 100 | > 100 | > 100 | > 100 | > 100 | – | – | – | – | – | – | –
16 | CC(=O)OC1C(C)OC(OC2C[C@](O)(C(C)=O)Cc3c(O)c4c(c(O)c32)C(=O)c2ccccc2C4=O)C(F)C1OC(C)=O (stereo not given in full) | 41.8 | 7.76 | 1.03 | 1.51 | 4.08 | > 31.3 | 18.9 | 10.7 | > 100 | – | – | – | – | – | – | –
17 | COc1ccc(/[N+]([O-])=C/c2ccccc2OC(=S)S)cc1 | > 100 | 56.9 | 52 | – | > 100 | > 100 | > 100 | 45 | 63.4 | – | – | – | – | – | – | –
18 | Clc1cc2ncn(C3CCCO3)c2cc1Cl (stereo not given) | > 100 | > 100 | > 100 | > 100 | > 100 | > 100 | > 100 | > 100 | > 100 | – | – | – | – | – | – | –
19 | CNc1nc(OC)c2c(n1)[n+](C)cn2C | – | > 100 | > 100 | > 100 | > 100 | > 100 | > 100 | > 100 | > 100 | – | – | – | – | – | – | –
20 | CO/C(N)=C(\C#N)N=Cc1cccs1 | > 100 | > 100 | > 100 | > 100 | > 100 | > 100 | > 100 | > 100 | 90.1 | – | – | – | – | – | – | –
21 | O=C(Cn1c(-c2ccccc2)cc2ccccc21)N1CCOCC1 | > 100 | > 100 | > 100 | > 100 | > 100 | > 100 | > 100 | > 100 | > 100 | – | – | – | – | – | – | –
22 | CCOC(=O)c1sc2nc(SC)nc3c2c1NCN3c1ccccc1Cl | > 100 | > 100 | – | > 100 | 74.4 | > 100 | 73 | > 100 | > 100 | – | – | – | – | – | – | –
23 | CC1=C(C(=O)OC(C)(C)C)C(c2ccc([N+](=O)[O-])cc2)C(C(=O)OC(C)(C)C)=C(C)N1 | 37.4 | 35.4 | 34.9 | – | – | 43.4 | 36.2 | 42.3 | 48.6 | – | – | – | – | – | – | –
